From patent US20250035641A1, “COMPOSITIONS AND METHODS RELATED TO PROTEIN LABELING” (The Chinese University of Hong Kong, priority 2023, published 2025) come the findings set out here.

Common to all, as to format: cell-based
The subject of one assay is endogenous CK2α. As to the kind of experiment: Chemoenzymatic labelling and mass-shift assay, endogenous CK2α. The note with it: OGTAC-1 treatment.
For another assay, the target named is HTN-CK2α (Homo sapiens, UniProt P68400). As to the kind of experiment: Immunoblot of HTN-CK2α O-GlcNAcylation in HEK293T cells co-expressing fOGT. The text has this:
Ck2α is a well-studied OGT substrate.^17,25 Its Ser347 is conservatively O-GlcNAcylated and this modification was reported to affect its kinase activity.^16,17 We first co-expressed HTN-Ck2α and fOGT in HEK293T cells at different ratio and found the basal O-GlcNAcylation level of HTN-Ck2α was higher than what we detected in the case of HTN-BRD4. Therefore, a lower ratio of fOGT expression (1:100) was selected for the assessment of OGTAC potency (FIG. 9). […] The induction of specific O-GlcNAcylation on HTN-Ck2α was further confirmed by mass-shift assay. […] To validate the direct binding to both fOGT and HTN-Ck2α is critical, we exploited AP 1867 and rhodamine ligand, which bind to fOGT and HTN-Ck2α respectively, to co-treat with OGTAC-1.
During immunoblotting study, we noticed that even for whole cell lysate (WCL), RL2 antibody band (green) and HTN-CK2α protein band (red) are perfectly overlapped and clearly distinguishable from other bands on blot (FIG. 6B). We assessed the OGTAC treatment effects by quantifying the RL2 signal that is overlapping with HTN-Ck2α in WCL, and found they are corresponding with the results achieved by IP-WB method (FIG. 6C). Therefore, we quantify the intensity of RL2 band that overlapping with HTN-CK2α level instead of IP CK2α in later study.
For each IP reaction, 2.2×10^6 HEK293T cells were seed in 10 cm dish. After cells attached, transfection reagents and plasmids were prepared and added in DMEM. After 24 h transfection, media were replaced by fresh warm complete media with DMSO or probes. For washout study, after 4 h treatment, media with DMSO or OGTAC-4 (500 nM) were replaced by fresh media with DMSO or AP1867 (50 μM) for further incubation. After certain time of OGTACs treatment, cells were collected by cold PBS and lysed by 200 μL complete IP lysis buffer. The lysate was incubated on ice for 20 min, spun down at 14,000 RPM at 4° C. for 15 mins, and the supernatant were collected for bicinchoninic acid (BCA) assay and normalized to a final 2 mg/mL. For input, 20 μL of diluted sample was reacted with equal volume of 10 μM TMR ligand in IP lysis buffer and rotate gently at RT for 15 mins. The remaining samples were subjected to protein A/G magnetic beads (MedChemExpress, HY-K0202), which pre-binding with protein target protein antibody. For samples for LC-MS/MS or HTN-BRD4 mutant constructs. Halo-Trap Magnetic Agarose (Proteintech, otma) was used to incubate with protein lysates. After gentle rotation at 4° C. for at least 16 h, the beads were washed with IP lysis buffer and boiled in 40 μL 2×SDS-loading buffer (Biorad #1610747) for 5 mins to elute proteins from beads. Eluted samples were directly subjected into WB analysis. To get stronger signal of RL2, we used anti-mouse-HRP (Cell signaling, #7076) as secondary antibody for RL2 and anti-rabbit-DyLight 488 (Invitrogen, #35552) as secondary antibody for total target proteins.
In general, cells (from 12 well plate) were lysed by 80 μl RIPA lysis buffer (Thermo Scientic 89901) supplemented with 20 μM OGA inhibitor (Thaimet G, Bidepharm BD571819) and 100X protease inhibitor (MedChemExpress, HY-K0010), incubated on ice for 20 min, spun down at 14,000 RPM at 4° C. for 15 mins, and the supernatant were collected for bicinchoninic acid (BCA) assay and normalizedeto a final 2 mg/mL concentration. About 30 μg of protein samples were loaded for sodium dodecyl sulfatepolyacrylamide gel electrophoresis (SDS-PADE) and blotted with indicated antibodies.

Assay [1] has as its target T1, fOGT (FKBP12^F36V fused-OGT) (Homo sapiens, UniProt P62942, F37V).
T1 construct: expressed in transfected cells; host or cells: HEK293T
The assay can be described thus: Intact cell CETSA (fOGT engagement). The note with it: HEK-293T, 4 h, HEK293T HTN-BRD4:fOGT=1:0.05.
Protocol: For fOGT engagement, we established a cellular thermal shift assay (CETSA). Using same co-expressing system, we treated cells with OGTAC 1-3 for 4 h, and conducted heat challenge to intact cells at a series of temperature to determine the corresponding melting temperature (Tm). […] HEK293T cells (2.5×10^6 cells) were seeded in 10 cm culture dish overnight for attachment. On the next day, cells were transfected with HTN-BRD4:fOGT=1:0.05 plasmid for 24 hours until ˜90% confluence. After treatment with 5 μM compounds or DMSO, cells were collected and washed with PBS. Subsequently, cells were re-suspended in 500 μL PBS and equally divided into 50 μL aliquots. The tubes were subjected to heat challenge at 37-53° C. for 5 mins, followed by cooling on ice. Cells were lysed by three repeated freeze-thaw cycles with liquid nitrogen and water bath. Lastly, cells were centrifuged at 14000 RPM for 15 mins and supernatants were collected for Western Blot analysis.

The next assay has as its target T2, HTN-BRD4 and 0tfOGT (Homo sapiens, UniProt O60885+P62942, F37V).
T2 construct: HaloTag fragment; 0TPR(463-1046)-; expressed in transfected cells; host or cells: HEK293T
As to the kind of experiment: Washout / reversibility study, HTN-BRD4:0tfOGT. The note with it: 500 nM 4 h pretreatment, then fresh media. The procedure:
(§1) FIGS. 7A-7E: Specificity and reversibility of OGTAC strategy. […] (B), Constructs of fOGT with 13.5 (rounded to 13) TPR and 0TPR-fOGT (0tfOGT). (C). […] (D), Dose-dependent O-GlcNAcylation profile of HTN-BRD4 by OGTAC-4 treatment. HEK293T cells expressing HTN-BRD4:0tfOGT=1:0.05 were treated with an increasing concentration of OGTAC-4 for 4 h. Then, the O-GlcNAcylation level of HTN-BRD4 was assessed by immunoblot after IP using BRD4 antibody. All quantifications are shown as mean±s.e.m. of n=3 biologically independent experiments. (E), Reversible effect of OGTAC-4 on HTN-BRD4 can be achieved by addition of AP1867. HEK293T cells expressing HTN-BRD4:0tfOGT=1:0.05 were pretreated with OGTAC-4 (500 nM) or DMSO for 4 h, and culturing media were replaced by fresh media with DMSO or AP1867 (50 μM) for the indicated time. The quantifications in right panel were conducted by the normalizing the fold-change (OGTAC-4/DMSO) for each post-washout time point to the value of 4 h pre-treatment. All quantifications are shown as mean±s.e.m. of 3 independent biological repeats. Statistical significance was calculated with ordinary one-way ANOVA comparing samples with different transfection conditions or OGTAC-treatment. ns, p≥0.05; *p<0.05; **p<0.01; ***p<0.001; ****p<0.0001.
To assess the potential application of our OGTAC strategy in downstream biological studies, we investigated the reversibility of OGTACs. […] Additionally. the O-GlcNAc level of BRD4 returned to baseline after 6 hours of AP1867 treatment, confirming the reversibility of the induction effect (FIG. 7E).
For each IP reaction, 2.2×10^6 HEK293T cells were seed in 10 cm dish. After cells attached, transfection reagents and plasmids were prepared and added in DMEM. After 24 h transfection, media were replaced by fresh warm complete media with DMSO or probes. For washout study, after 4 h treatment, media with DMSO or OGTAC-4 (500 nM) were replaced by fresh media with DMSO or AP1867 (50 μM) for further incubation. After certain time of OGTACs treatment, cells were collected by cold PBS and lysed by 200 μL complete IP lysis buffer. […]

Another assay addresses T3, HTN-BRD4 (Homo sapiens, UniProt O60885+P62942, F37V).
T3 construct: HaloTag fragment; expressed in transfected cells; host or cells: HEK293T
The assay can be described thus: IP-WB of HTN-BRD4 O-GlcNAcylation with truncated 0tfOGT. Conditions: 0tfOGT:HTN-BRD4 system, 4 h. As to the method: as §1
We next applied OGTAC-4 to the 0tfOGT:HTN-BRD4 system, resulting in an 5-fold increase in O-GlcNAc level on BRD4. […]

Where only a bound is given, the exact number is not on record here.

HTN-CK2α, sequence (P68400 with tags, fused parts or gaps): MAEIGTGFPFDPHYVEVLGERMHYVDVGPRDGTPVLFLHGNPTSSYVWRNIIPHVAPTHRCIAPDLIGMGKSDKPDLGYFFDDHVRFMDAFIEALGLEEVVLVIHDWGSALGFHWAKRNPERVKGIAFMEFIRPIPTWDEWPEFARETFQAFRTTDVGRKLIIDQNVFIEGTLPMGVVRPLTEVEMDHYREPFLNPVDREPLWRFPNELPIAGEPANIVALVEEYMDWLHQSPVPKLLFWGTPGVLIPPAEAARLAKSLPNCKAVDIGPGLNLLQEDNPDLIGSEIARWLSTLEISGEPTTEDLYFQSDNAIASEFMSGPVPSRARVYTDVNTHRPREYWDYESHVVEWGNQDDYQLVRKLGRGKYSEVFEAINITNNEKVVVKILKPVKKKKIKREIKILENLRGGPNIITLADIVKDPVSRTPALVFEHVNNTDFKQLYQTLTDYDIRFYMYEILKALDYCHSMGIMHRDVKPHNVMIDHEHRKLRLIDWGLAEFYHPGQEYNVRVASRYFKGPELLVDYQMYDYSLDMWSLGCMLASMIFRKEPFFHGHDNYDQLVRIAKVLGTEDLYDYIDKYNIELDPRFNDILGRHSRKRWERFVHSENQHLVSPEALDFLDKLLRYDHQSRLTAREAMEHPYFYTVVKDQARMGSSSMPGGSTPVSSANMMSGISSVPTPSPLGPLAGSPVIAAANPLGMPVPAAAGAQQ
HTN-CK2α, sequence (P62942+O15294 fused P62942:F37V partner): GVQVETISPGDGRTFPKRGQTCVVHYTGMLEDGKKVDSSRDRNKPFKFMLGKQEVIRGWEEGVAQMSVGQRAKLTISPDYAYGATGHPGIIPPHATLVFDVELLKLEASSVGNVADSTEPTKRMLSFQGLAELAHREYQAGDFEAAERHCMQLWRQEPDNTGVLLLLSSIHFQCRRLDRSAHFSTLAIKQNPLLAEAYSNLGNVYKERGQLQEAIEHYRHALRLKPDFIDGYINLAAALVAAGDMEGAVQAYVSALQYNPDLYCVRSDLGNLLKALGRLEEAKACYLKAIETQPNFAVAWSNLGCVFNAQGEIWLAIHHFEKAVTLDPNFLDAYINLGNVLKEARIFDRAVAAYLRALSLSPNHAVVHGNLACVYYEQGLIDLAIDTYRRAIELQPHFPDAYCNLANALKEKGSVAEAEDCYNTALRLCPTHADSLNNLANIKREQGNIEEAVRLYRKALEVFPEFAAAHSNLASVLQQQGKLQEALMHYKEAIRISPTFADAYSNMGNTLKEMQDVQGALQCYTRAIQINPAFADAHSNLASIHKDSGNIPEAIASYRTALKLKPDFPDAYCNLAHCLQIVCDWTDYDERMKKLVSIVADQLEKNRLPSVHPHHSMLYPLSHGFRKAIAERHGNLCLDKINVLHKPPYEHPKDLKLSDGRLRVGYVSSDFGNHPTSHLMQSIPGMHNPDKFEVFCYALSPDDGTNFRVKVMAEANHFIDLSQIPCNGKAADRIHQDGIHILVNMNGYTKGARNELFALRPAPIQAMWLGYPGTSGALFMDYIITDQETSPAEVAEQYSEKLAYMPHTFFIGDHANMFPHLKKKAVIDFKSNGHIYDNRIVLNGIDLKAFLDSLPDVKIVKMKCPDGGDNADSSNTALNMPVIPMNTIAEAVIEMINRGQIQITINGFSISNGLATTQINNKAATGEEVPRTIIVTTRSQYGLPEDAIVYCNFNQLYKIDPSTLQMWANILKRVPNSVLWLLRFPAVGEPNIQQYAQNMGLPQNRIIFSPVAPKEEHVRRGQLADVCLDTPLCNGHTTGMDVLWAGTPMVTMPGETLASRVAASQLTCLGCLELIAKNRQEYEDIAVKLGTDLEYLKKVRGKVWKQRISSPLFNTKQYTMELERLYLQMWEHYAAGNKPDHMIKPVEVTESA
T2 sequence (P62942 whole entry F37V, stated change not applied, other chains not shown, the tested form may be a part): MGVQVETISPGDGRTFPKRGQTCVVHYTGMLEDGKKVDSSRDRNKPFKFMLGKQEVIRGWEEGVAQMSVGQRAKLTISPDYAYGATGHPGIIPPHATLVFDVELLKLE
T3 sequence (P62942 whole entry F37V, stated change not applied, other chains not shown, the tested form may be a part): as above
T1 sequence (P62942 whole entry F37V, the tested form may be a part): as the sequence (P62942 whole entry F37V, stated change not applied, other chains not shown, the tested form may be a part) above

Consider `CC[C@H](C(=O)N1CCCC[C@H]1C(=O)O[C@H](CCc1ccc(OC)c(OC)c1)c1cccc(OCC(=O)NCCOCCOCCCCCCCl)c1)c1cc(OC)c(OC)c(OC)c1` [OGTAC-1, (R)-1-(3-(2-((2-(2-((6-chlorohexyl)oxy)ethoxy)ethyl)amino)-2-oxoethoxy)phenyl)-3-(3,4-dimethoxyphenyl)propyl (S)-1-((S)-2-(3,4,5-trimethoxyphenyl)butanoyl) piperidine-2-carboxylate], for which the “O-GlcNAcylation level of endogenous CK2α” value with endogenous CK2α is recorded as “did not alter”. On HTN-CK2α (250 nM), the “time at which induction of HTN-CK2α O-GlcNAcylation happened” value is at most 4 h and the “time of peak induction of HTN-CK2α O-GlcNAcylation” value is reported as 8 h. Moreover, the “fold increase of O-GlcNAcylation on HTN-CK2α, whole cell lysate WB” value at HTN-CK2α (500 nM and 1 μM) is given as “higher fold increase of O-GlcNAcylation”. Besides, the “concentration of peak induction of HTN-CK2α O-GlcNAcylation” value at HTN-CK2α (24 h treatment) turned out to be 1 µM. On HTN-CK2α (IP-WB, fOGT ratio 1:100), the “HTN-CK2α O-GlcNAcylation inducing effect among OGTAC-1/2/3” value is given as “prevailed among 3 OGTACs”. Also, in assay [1], the thermal shift (ΔTm) at 5 µM was found to be 1.4 °C.
On to `CC[C@H](C(=O)N1CCCC[C@H]1C(=O)O[C@H](CCc1ccc(OC)c(OC)c1)c1cccc(OCC(=O)NCCCCCCNC(=O)C[C@@H]2N=C(c3ccc(Cl)cc3)c3c(sc(C)c3C)-n3c(C)nnc32)c1)c1cc(OC)c(OC)c(OC)c1` [OGTAC-4, (R)-1-(3-(2-((6-(2-((S)-4-(4-chlorophenyl)-2,3,9-trimethyl-6H-thieno[3,2-f[]8 1,2,4]triazolo[4,3-a][1,4]diazepin-6-yl)acetamido)hexyl)amino)-2-oxoethoxy)phenyl)-3-(3,4-dimethoxyphenyl)propyl (S)-1-((S)-2-(3,4,5-trimethoxyphenyl)butanoyl)piperidine-2-carboxylate], for which the “O-GlcNAc induction and ternary complex formation after washout” value on HTN-BRD4 and 0tfOGT was “persisted post-washout”. The “fold increase in O-GlcNAc level on BRD4” value on HTN-BRD4 is listed as 5 fold.

What is called ΔTm is the shift of the melting midpoint relative to a reference.
